Data from patent US8592460B2, “Amino-pyridine derivatives as S1P1 /EDG1 receptor agonists” (Actelion Pharmaceuticals Ltd., priority 2007, dated 2013).

These compounds were tested against recombinant human S1P1 receptor (Homo sapiens, UniProt P21453) (assay: GTPγS assay to determine EC50 values). Conditions: agonistic activity; 35S-GTPγS binding, membrane preparations of CHO cells expressing recombinant human S1P1 receptor.
Type: biochemical
Experimental: GTPγS binding assays are performed in 96 well microtiter plates (Nunc, 442587) in a final volume of 200 μl, using membrane preparations of CHO cells expressing recombinant human S1P1 receptor. Assay conditions are 20 mM Hepes (Fluka, 54461), 100 mM NaCl (Fluka, 71378), 5 mM MgCl2(Fluka, 63064), 0.1% BSA (Calbiochem, 126609), 1 μM GDP (Sigma, G-7127), 2.5% DMSO (Fluka, 41644), […] ^35S-GTPγS (Amersham Biosciences, SJ1320). The pH is 7.4. Test compounds are dissolved and diluted in 100% DMSO and pre-incubated at room temperature for 30 min in 150 μl of the above assay buffer, in the absence of ^35S-GTPγS. After addition of 50 μl of ^35S-GTPγS, the assay is incubated for 1 h at rt. The assay is terminated by transfer of the reaction mixture to a Multiscreen plate (Millipore, MAHFC1H60) using a cell harvester from Packard Biosciences, and the plates are washed with ice-cold 10 mM Na2HPO4/NaH2PO4 (70%/30%), dried, sealed at the bottom and, after addition of 25 μl MicroScint20 (Packard Biosciences, order#6013621), sealed on the top. Membrane-bound ^35S-GTPγS is measured with a TopCount from Packard Biosciences.
EC50 is the concentration of agonist inducing 50% of the maximal specific ^35S-GTPγS binding. Specific binding is determined by subtracting non-specific binding from maximal binding. Maximal binding is the amount of cpm bound to the Multiscreen plate in the presence of 10 μM of S1P. Non-specific binding is the amount of binding in the absence of an agonist in the assay.

Chain of recombinant human S1P1 receptor (P21453 whole entry): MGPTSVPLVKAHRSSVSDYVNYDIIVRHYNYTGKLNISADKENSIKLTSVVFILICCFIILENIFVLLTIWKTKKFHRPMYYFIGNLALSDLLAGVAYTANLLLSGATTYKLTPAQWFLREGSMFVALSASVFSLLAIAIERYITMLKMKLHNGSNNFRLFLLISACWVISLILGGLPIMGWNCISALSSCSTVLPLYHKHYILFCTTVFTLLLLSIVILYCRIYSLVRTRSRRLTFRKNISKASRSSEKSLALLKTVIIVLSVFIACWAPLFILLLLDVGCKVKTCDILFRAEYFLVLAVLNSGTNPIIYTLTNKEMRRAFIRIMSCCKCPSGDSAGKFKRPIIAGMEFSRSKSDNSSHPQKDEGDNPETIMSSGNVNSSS

Row | SMILES | EC50 [nM]
1 | CCc1cc(-c2noc(-c3cc(C)nc(N(CC)CC)c3)n2)cc(C)c1OCC(O)CO (racemic) [Example 15, rac-3-{4-[5-(2-Diethylamino-6-methyl-pyridin-4-yl)-[1,2,4]oxadiazol-3-yl]-2-ethyl-6-methyl-phenoxy}-propane-1,2-diol] | 1.2
2 | CCc1cc(-c2nc(-c3cc(C)c(OCC(O)CNC(=O)CO)c(CC)c3)no2)cc(N(C)C)n1 (racemic) [Example 32, rac-N-(3-{4-[5-(2-Dimethylamino-6-ethyl-pyridin-4-yl)-[1,2,4]oxadiazol-3-yl]-2-ethyl-6-methyl-phenoxy}-2-hydroxy-propyl)-2-hydroxy-acetamide] | 1.2
3 | CCc1cc(-c2noc(-c3cc(C)nc(N(CC)CC)c3)n2)cc(C)c1OCCN1CCC(C(=O)O)C1 (racemic) [Example 66, rac-1-(2-{4-[5-(2-Diethylamino-6-methyl-pyridin-4-yl)-[1,2,4]oxadiazol-3-yl]-2-ethyl-6-methyl-phenoxy}-ethyl)-pyrrolidine-3-carboxylic acid] | 6.2
4 | Cc1cc(-c2nc(-c3cc(C)c(O)c(C)c3)no2)cc(N(C)C(C)C)n1 [Example 21, 4-{5-[2-(Isopropyl-methyl-amino)-6-methyl-pyridin-4-yl]-[1,2,4]oxadiazol-3-yl}-2,6-dimethyl-phenol] | 3.6
5 | Cc1cc(-c2nc(-c3cc(C)c(OC[C@@H](O)CO)c(C)c3)no2)cc(N(C)C(C)C)n1 [Example 22, (S)-3-(4-{5-[2-(Isopropyl-methyl-amino)-6-methyl-pyridin-4-yl]-[1,2,4]oxadiazol-3-yl}-2,6-dimethyl-phenoxy)-propane-1,2-diol] | 0.7
6 | CCc1cc(-c2noc(-c3cc(C)nc(N(C)C(C)C)c3)n2)cc(C)c1CCC(=O)NCCC(=O)O [Example 26, 3-[3-(2-Ethyl-4-{5-[2-(isopropyl-methyl-amino)-6-methyl-pyridin-4-yl]-[1,2,4]oxadiazol-3-yl}-6-methyl-phenyl)-propionylamino]-propionic acid] | 2.6
7 | CCc1cc(-c2nc(-c3cc(C)nc(N(CC)CC)c3)no2)cc(C)c1OC[C@H](O)CNC(=O)CO [Example 79, N—((R)-3-{4-[3-(2-diethylamino-6-methyl-pyridin-4-yl)-[1,2,4]oxadiazol-5-yl]-2-ethyl-6-methyl-phenoxy}-2-hydroxy-propyl)-2-hydroxy-acetamide] | 1.4
8 | CCc1cc(-c2nnc(-c3cc(C)nc(N(CC)CC)c3)o2)cc(C)c1OC[C@@H](O)CNC(=O)CO [Example 87, N—((S)-3-{4-[5-(2-diethylamino-6-methyl-pyridin-4-yl)-[1,3,4]oxadiazol-2-yl]-2-ethyl-6-methyl-phenoxy}-2-hydroxy-propyl)-2-hydroxy-acetamide] | 3.4

The next lines start with the values.

Row | EC50 [nM] | SMILES
9 | 0.5 | CCN(CC)c1cc(-c2nc(-c3cc(C)c(OC[C@@H](O)CNC(=O)CO)c(Cl)c3)no2)cc(C)n1 [Example 109, N—((S)-3-{2-chloro-4-[5-(2-diethylamino-6-methyl-pyridin-4-yl)-[1,2,4]oxadiazol-3-yl]-6-methyl-phenoxy}-2-hydroxy-propyl)-2-hydroxy-acetamide]
10 | 2 | CCN(CC)c1cc(-c2nc(-c3cc(Cl)c(OC[C@H](O)CNC(=O)CO)c(OC)c3)no2)cc(C)n1 [Example 116, N—((R)-3-{2-chloro-4-[5-(2-diethylamino-6-methyl-pyridin-4-yl)-[1,2,4]oxadiazol-3-yl]-6-methoxy-phenoxy}-2-hydroxy-propyl)-2-hydroxy-acetamide]
11 | 0.1 | CCc1cc(-c2noc(-c3cc(C)nc(N(C)C(C)C)c3)n2)cc(C)c1OC[C@@H](O)CNC(=O)CO [Example 130, N—[(S)-3-(2-ethyl-4-{5-[2-(isopropyl-methyl-amino)-6-methyl-pyridin-4-yl]-[1,2,4]oxadiazol-3-yl}-6-methyl-phenoxy)-2-hydroxy-propyl]-2-hydroxy-acetamide]
12 | 2 | CCCc1cc(-c2noc(-c3cc(C)nc(N(C)C(C)C)c3)n2)cc(C)c1OC[C@@H](O)CNC(=O)CO [Example 139, 2-hydroxy-N—[(S)-2-hydroxy-3-(4-{5-[2-(isopropyl-methyl-amino)-6-methyl-pyridin-4-yl]-[1,2,4]oxadiazol-3-yl}-2-methyl-6-propyl-phenoxy)-propyl]-acetamide]
13 | 0.8 | Cc1cc(-c2nc(-c3cc(C)c(OC[C@@H](O)CNC(=O)CO)c(Cl)c3)no2)cc(N(C)C(C)C)n1 [Example 146, N—[(S)-3-(2-chloro-4-{5-[2-(isopropyl-methyl-amino)-6-methyl-pyridin-4-yl]-[1,2,4]oxadiazol-3-yl}-6-methyl-phenoxy)-2-hydroxy-propyl]-2-hydroxy-acetamide]
14 | 5.1 | COc1cc(OC[C@H](O)CNC(=O)CO)ccc1-c1noc(-c2cc(C)nc(N(C)C(C)C)c2)n1 [Example 159, 2-hydroxy-N—[(R)-2-hydroxy-3-(4-{5-[2-(isopropyl-methyl-amino)-6-methyl-pyridin-4-yl]-[1,2,4]oxadiazol-3-yl}-3-methoxy-phenoxy)-propyl]-acetamide]
15 | 0.2 | CCc1cc(-c2nc(-c3cc(C)c(OC[C@@H](O)CNC(=O)CO)c(CC)c3)no2)cc(N(C)C)n1 [Example 192, N—((S)-3-{4-[5-(2-dimethylamino-6-ethyl-pyridin-4-yl)-[1,2,4]oxadiazol-3-yl]-2-ethyl-6-methyl-phenoxy}-2-hydroxy-propyl)-2-hydroxy-acetamide]
16 | 2.4 | CCc1cc(-c2noc(-c3cc(C)nc(NC(C)C)c3)n2)cc(C)c1OC[C@H](O)CO [Example 198, (R)-3-{2-ethyl-4-[5-(2-isopropylamino-6-methyl-pyridin-4-yl)-[1,2,4]oxadiazol-3-yl]-6-methyl-phenoxy}-propane-1,2-diol]
17 | 0.5 | CCc1cc(-c2noc(-c3cc(C)nc(NC(C)C)c3)n2)cc(C)c1OC[C@@H](O)CNC(=O)CO [Example 203, N—((S)-3-{2-ethyl-4-[5-(2-isopropylamino-6-methyl-pyridin-4-yl)-[1,2,4]oxadiazol-3-yl]-6-methyl-phenoxy}-2-hydroxy-propyl)-2-hydroxy-acetamide]
18 | 4.1 | CCc1cc(-c2noc(-c3cc(C)nc(N(C)CC(C)C)c3)n2)cc(C)c1OC[C@@H](O)CNC(=O)CO [Example 232, N—[(S)-3-(2-ethyl-4-{5-[2-(isobutyl-methyl-amino)-6-methyl-pyridin-4-yl]-[1,2,4]oxadiazol-3-yl}-6-methyl-phenoxy)-2-hydroxy-propyl]-2-hydroxy-acetamide]

Same assay, conditions: agonistic activity; 35S-GTPγS binding, membranes of CHO cells expressing recombinant human S1P1 receptor

Row | SMILES | EC50 [nM]
19 | CCc1cc(-c2noc(-c3cc(C)nc(N(C)CC(C)C)c3)n2)cc(C)c1OCC(O)CO (racemic) [Example 34, rac-3-(2-Ethyl-4-{5-[2-(isobutyl-methyl-amino)-6-methyl-pyridin-4-yl]-[1,2,4]oxadiazol-3-yl}-6-methyl-phenoxy)-propane-1,2-diol] | > 10000
20 | CCc1cc(-c2nnc(-c3cc(C)nc(N(CC)CC)c3)s2)cc(C)c1OC[C@@H](O)CO [Example 90] | > 10000

More lines, now with the values ahead:

Row | EC50 [nM] | SMILES
21 | > 10000 | CCc1cc(-c2nnc(-c3cc(C)nc(N(C)C(C)C)c3)s2)cc(C)c1OC[C@H](O)CO [Example 176]
22 | > 10000 | CCc1cc(-c2nnc(-c3cc(C)nc(N(C)C(C)C)c3)s2)cc(C)c1OC[C@H](O)CN [Example 178]
23 | > 10000 | CCc1cc(-c2nnc(-c3cc(C)nc(N(C)C(C)C)c3)s2)cc(C)c1OC[C@@H](O)CN [Example 179]
24 | > 10000 | CCc1cc(-c2noc(-c3cc(C)nc(N4CCOCC4)c3)n2)cc(C)c1OC[C@H](O)CN [Example 208]
25 | > 10000 | CCc1cc(-c2noc(-c3cc(C)nc(N4CCOCC4)c3)n2)cc(C)c1OC[C@@H](O)CN [Example 209]

These compounds were tested on circulating lymphocytes (assay: Assessment of in vivo efficacy: circulating lymphocytes after oral administration). Conditions: 6 h after oral administration of 10 mg/kg to normotensive male Wistar rats, compared to vehicle-treated group; mean ± SEM.
Parameters: species or system rat
Experimental: The efficacy of the compounds of formula (I) is assessed by measuring the circulating lymphocytes after oral administration of 3 to 30 mg/kg of a compound of formula (I) to normotensive male Wistar rats. The animals are housed in climate-controlled conditions with a 12 h-light/dark cycle, and have free access to normal rat chow and drinking water. Blood is collected before and 3, 6 and 24 h after drug administration. Full blood is subjected to hematology using Advia Hematology system (Bayer Diagnostics, Zurich, Switzerland).
All data are presented as mean±SEM. Statistical analyses are performed by analysis of variance (ANOVA) using Statistica (StatSoft) and the Student-Newman-Keuls procedure for multiple comparisons. The null hypothesis is rejected when p<0.05.
Lymphocyte counts 6 h after oral administration have been measured for 39 of the 258 exemplified compounds and are in the range of −82% to −48% with an average of −65%.

Row | SMILES | Lymphocyte counts [%]
26 | CCN(CC)c1cc(-c2nc(-c3cc(C)c(OC[C@@H](O)CO)c(C)c3)no2)cc(C)n1 [Example 11, (S)-3-{4-[5-(2-diethylamino-6-methyl-pyridin-4-yl)-[1,2,4]oxadiazol-3-yl]-2,6-dimethyl-phenoxy}-propane-1,2-diol] | −70 ± 2
27 | CCc1cc(-c2noc(-c3cc(C)nc(N(C)C(C)C)c3)n2)cc(C)c1OC[C@@H](O)CO [Example 24, (S)-3-(2-Ethyl-4-{5-[2-(isopropyl-methyl-amino)-6-methyl-pyridin-4-yl]-[1,2,4]oxa-diazol-3-yl}-6-methyl-phenoxy)-propane-1,2-diol] | −72 ± 1
